Laboratory results taken from patent publication US7670613B2, “Androgen modulators” (Pfizer Inc., priority 2004, dated 2010).

What follows are compounds tested against T1, hAR (Homo sapiens, UniProt P10275) (assay: Competitive binding analysis on baculovirus/Sf9 generated hAR extracts with 3H-DHT tracer). Settings: AR Binding IC50, hAR extract, 1 nM 3H-DHT, one hour at 4° C.; mean of multiple tests.
T1 construct: made in house; host or cells: baculovirus/Sf9 insect cells
T1 sequence (P10275 1-920): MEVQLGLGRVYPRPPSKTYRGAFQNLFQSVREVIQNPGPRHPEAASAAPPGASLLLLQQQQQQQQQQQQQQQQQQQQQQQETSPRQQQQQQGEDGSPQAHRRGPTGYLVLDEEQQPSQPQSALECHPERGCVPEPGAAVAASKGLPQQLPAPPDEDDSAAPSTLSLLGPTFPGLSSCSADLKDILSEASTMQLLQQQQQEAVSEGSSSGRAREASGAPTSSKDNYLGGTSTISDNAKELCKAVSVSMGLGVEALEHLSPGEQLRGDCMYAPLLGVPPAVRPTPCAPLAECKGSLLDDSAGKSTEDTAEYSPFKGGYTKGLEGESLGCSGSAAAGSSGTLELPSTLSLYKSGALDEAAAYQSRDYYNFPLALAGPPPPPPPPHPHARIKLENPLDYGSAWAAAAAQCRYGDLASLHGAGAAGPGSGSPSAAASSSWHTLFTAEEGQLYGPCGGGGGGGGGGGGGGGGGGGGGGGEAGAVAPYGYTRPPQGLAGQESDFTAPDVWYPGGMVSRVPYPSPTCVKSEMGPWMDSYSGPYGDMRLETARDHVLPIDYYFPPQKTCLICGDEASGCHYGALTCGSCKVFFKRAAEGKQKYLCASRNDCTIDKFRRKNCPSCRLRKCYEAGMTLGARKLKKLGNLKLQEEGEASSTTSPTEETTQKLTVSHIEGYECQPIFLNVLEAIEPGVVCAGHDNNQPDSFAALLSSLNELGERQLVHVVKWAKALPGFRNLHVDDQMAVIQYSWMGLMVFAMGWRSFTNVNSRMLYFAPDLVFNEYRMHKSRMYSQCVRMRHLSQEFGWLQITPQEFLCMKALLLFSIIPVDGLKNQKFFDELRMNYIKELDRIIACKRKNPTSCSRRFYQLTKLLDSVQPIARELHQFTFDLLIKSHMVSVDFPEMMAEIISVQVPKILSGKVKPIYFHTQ
Protocol: The description below describes how the assay was carried out.
Competitive binding analysis was performed on baculovirus/Sf9 generated hAR extracts in the presence or absence of different concentrations of test agent and a fixed concentration of ^3H-dihydrotestosterone (^3H-DHT) as tracer. This binding assay method is a modification of a protocol previously described (Liao S., et. al. J. Steroid Biochem. 20:11-17 1984). Briefly, progressively decreasing concentrations of compounds are incubated in the presence of hAR extract (Chang et al. P.N.A.S. Vol. 89, pp. […], 1992), hydroxylapatite, and 1 nM ^3H-DHT for one hour at 4° C. Subsequently, the binding reactions are washed three times to completely remove excess unbound ^3H-DHT. hAR bound ^3H-DHT levels are determined in the presence of compounds (i.e. competitive binding) and compared to levels bound when no competitor is present (i.e. maximum binding). Compound binding affinity to the hAR is expressed as the concentration of compound at which one half of the maximum binding is inhibited.
In the case of `CO[C@H]1CCC[C@@H]1Oc1ccc(C#N)c(Cl)c1` (relative stereo) [Example 35, 2-Chloro-4-(trans-2-methoxy-cyclopentyloxy)-benzonitrile], the IC50 is reported as 97 nM. `CO[C@@H]1CCCC[C@H]1Oc1ccc(C#N)c(Cl)c1` (relative stereo) [Example 39, 2-Chloro-4-(trans-2-methoxy-cyclohexyloxy)-benzonitrile] gave an IC50 of 76 nM. `CC1CCCC(Oc2ccc(C#N)c(Cl)c2)C1C` (centres unmarked) [Example 20, 2-Chloro-4-(2,3-dimethyl-cyclohexyloxy)-benzonitrile] gave an IC50 of 227 nM. Work on `CC1CCCCC1Oc1ccc(C#N)c(Cl)c1` (centres unmarked) [Example 28, 2-Chloro-4-(2-methyl-cyclohexyloxy)-benzonitrile] yielded an IC50 of 49 nM. Compound `N#Cc1ccc(OC2CCCCC2c2ccccc2)cc1Cl` (centres unmarked) [Example 29, 2-Chloro-4-(2-phenyl-cyclohexyloxy)-benzonitrile] has an IC50 of 89 nM. `C[C@H]1CCCC[C@@H]1Oc1ccc(C#N)c(Cl)c1` [Example 30, 2-Chloro-4-(2-(S)-methyl-(S)-cyclohexyloxy)-benzonitrile] showed an IC50 of 24 nM. `N#Cc1ccc(O[C@@H]2CCCC[C@@H]2c2ccccc2)cc1Cl` [Example 56, (1R,2R)-2-Chloro-4-(2-phenyl-cyclohexyloxy)-benzonitrile] gave an IC50 of 366 nM. Work on `N#Cc1ccc(O[C@@H]2CCCC[C@H]2c2ccccc2)cc1Cl` [Example 58, (1R,2S) 2-Chloro-4-(2-phenyl-cyclohexyloxy)-benzonitrile] yielded an IC50 of 278 nM.

Same assay, conditions: hAR extract, 1 nM 3H-DHT, one hour at 4° C.; mean of multiple tests; read-out: AR Binding IC50
`C[C@H]1CCC[C@@H]1Oc1ccc(C#N)c(C(F)(F)F)c1` (relative stereo) [Example 2, 4-(trans-2-Methyl-cyclopentyloxy)-2-trifluoromethyl-benzonitrile] gave an IC50 of 153 nM. With `C=CCO[C@H]1CCC[C@H]1Oc1ccc(C#N)c(Cl)c1` (relative stereo) [Example 37, 4-(cis-2-Allyloxy-cyclopentyloxy)-2-chloro-benzonitrile] the IC50 was 134 nM. Compound `C=CCO[C@H]1CCC[C@@H]1Oc1ccc(C#N)c(Cl)c1` (relative stereo) [Example 38, 4-(trans-2-Allyloxy-cyclopentyloxy)-2-chloro-benzonitrile] has an IC50 of 120 nM. Work on `N#Cc1ccc(OC2CCCCCC2)cc1C(F)(F)F` [Example 5, 4-cycloheptyloxy-2-trifluoromethyl-benzonitrile] yielded an IC50 of 319 nM. Work on `CC1CCCC(Oc2ccc(C#N)c(C(F)(F)F)c2)C1C` (centres unmarked) [Example 6, 4-(2,3-Dimethyl-cyclohexyloxy)-2-trifluoromethyl-benzonitrile] yielded an IC50 of 356 nM. `C=C(C)[C@H]1CC[C@H](C)[C@@H](Oc2ccc(C#N)c(C(F)(F)F)c2)C1` [Example 13, (1S,2S,5S)-4-(5-Isopropenyl-2-methyl-cyclohexyloxy)-2-trifluoromethyl-benzonitrile] showed an IC50 of 102 nM. `COC1CCC(Oc2ccc(C#N)c(C(F)(F)F)c2)CC1` (centres unmarked) [Example 15, 4-(4-Methoxy-cyclohexyloxy)-2-trifluoromethyl-benzonitrile] showed an IC50 of 243 nM. Work on `C[C@H]1CC[C@@H](Oc2ccc(C#N)c(C(F)(F)F)c2)CC1` [Example 16] yielded an IC50 of 479 nM. Compound `C[C@H]1CCC[C@@H]1Oc1ccc(C#N)c(C(F)(F)F)c1` [Example 17, (1S,2S)-4-(2-Methyl-cyclopentyloxy)-2-trifluoromethyl-benzonitrile] has an IC50 of 252 nM. With `N#Cc1ccc(OC2CCC2)cc1C(F)(F)F` [Example 18, 4-Cyclobutoxy-2-trifluoromethyl-benzonitrile] the IC50 was 466 nM. In the case of `C[C@@H]1CCCC[C@H]1Oc1ccc(C#N)cc1Cl` [Example 42, (1R,2R)-3-Chloro-4-(2-methyl-cyclohexyloxy)benzonitrile], the IC50 is reported as 343 nM. With `CC1(C)CC(Oc2ccc(C#N)cc2Cl)CC(C)(C)C1` [Example 44, 3-Chloro-4-(3,3,5,5-tetramethyl-cyclohexyloxy)-benzonitrile] the IC50 was 410 nM. For `C[C@@H]1CCC[C@H](Oc2ccc(C#N)c(Cl)c2)C1` [Example 48, (1S,3R)-2-Chloro-4-(3-methyl-cyclohexyloxy)-benzonitrile], the IC50 was 218 nM. `CC1CCC(Oc2ccc(C#N)c(Cl)c2)CC1C` (centres unmarked) [Example 51, 2-Chloro-4-(3,4-dimethyl-cyclohexyloxy)-benzonitrile] was tested, and the IC50 was 442 nM. `C[C@H]1CC[C@@H](Oc2ccc(C#N)c(Cl)c2)CC1` [Example 54, (1S,4S)-2-Chloro-4-(4-methyl-cyclohexyloxy)-benzonitrile] gave an IC50 of 356 nM. Work on `C[C@H]1CC[C@H](Oc2ccc(C#N)cc2Cl)CC1` [Example 59, (1S,4R)-3-Chloro-4-(4-methyl-cyclohexyloxy)-benzonitrile] yielded an IC50 of 341 nM. `C[C@@H]1CCC[C@H](Oc2ccc(C#N)cc2Cl)C1` [Example 60, (1S,3R)3-Chloro-4-(3-methyl-cyclohexyloxy)-benzonitrile] was tested, and the IC50 was 388 nM. In the case of `CC(C)[C@H]1CC[C@H](C)C[C@@H]1Oc1ccc(C#N)cc1Cl` [Example 61, (1S,2R,5S)-3-Chloro-4-(2-isopropyl-5methyl-cyclohexyloxy)-benzonitrile], the IC50 is reported as 257 nM. Compound `CC1CCCC(Oc2ccc(C#N)cc2Cl)C1C` (centres unmarked) [Example 63, 3-Chloro-4-(2,3-dimethyl-cyclohexyloxy)-benzonitrile] has an IC50 of 374 nM. Work on `C[C@H]1CC(Oc2ccc(C#N)c(Cl)c2)C[C@H](C)C1` (stereo partly drawn) [Example 65, (3R,5R)-2-Chloro-4-(trans)-(3,5-dimethyl-cyclohexyloxy)-benzonitrile] yielded an IC50 of 437 nM. With `C[C@@H]1CCC[C@H]1Oc1ccc(C#N)cc1Cl` [Example 66, (1R,2R)-3-Chloro-4-(2-methyl-cyclopentyloxy)-benzonitrile] the IC50 was 402 nM.
